The numbers were not newly measured in PubChem BioAssay AID1259410 (Chemical Carcinogenesis Research Information System (CCRIS), 2018), which cites them from elsewhere.

This data set relates to rodent tumor promotion studies, tumor incidence. The experiment in a line: CCRIS tumor promotion studies.

Regarding `CCC(=O)O[C@H]1CC[C@H]2[C@@H]3CCC4=CC(=O)CC[C@]4(C)[C@H]3CC[C@]12C`, the outcome is “prostate: carcinoma; seminal vesicle: carcinoma” (Carcinogen: 3,2'-DIMETHYL-4-AMINOBIPHENYL, 13394-86-0, Doses [Carcinogen]: 50 MG/KG 1/2 WK FOR 20 WK, Doses [Promoter]: CONTINUOUS ADMINISTRATION TO CASTRATED RATS FOR 40 WK, IMPLANTS REPLACED AT 6-WK INTERVALS (STUDY DURATION: 60 WK), Route [Carcinogen]: SUBCUTANEOUS, Route [Promoter]: SUBCUTANEOUS IMPLANT, Species: RAT, Strain/Sex: F344/MALE); “dorsolateral prostate: carcinoma; seminal vesicle: carcinoma” (Carcinogen: 3,2'-DIMETHYL-4-AMINOBIPHENYL, 13394-86-0, Doses [Carcinogen]: 50 MG/KG 1/2 WK FOR A TOTAL OF 10 INJECTIONS, Doses [Promoter]: 0, 40 MG IN SILASTIC TUBES IMPLANTED 1 WK PRIOR TO CARCINOGEN TREATMENT AND CONTINUING FOR DURATION OF STUDY WITH REPLAC, Route [Carcinogen]: SUBCUTANEOUS, Route [Promoter]: SUBCUTANEOUS IMPLANT, Species: RAT, Strain/Sex: F344/MALE); “skin/subcutis: tumor” (Carcinogen: 3,2'-DIMETHYL-4-AMINOBIPHENYL, 13394-86-0, Doses [Carcinogen]: 50 MG/KG 1/2 WK FOR A TOTAL OF 10 INJECTIONS, Doses [Promoter]: 0, 100 MG/KG 1/D FOR 3 D PRECEDING EACH CARCINOGEN DOSE (STUDY DURATION: 56 WK), Route [Carcinogen]: SUBCUTANEOUS, Route [Promoter]: SUBCUTANEOUS, Species: RAT, Strain/Sex: F344/MALE); “dorsolateral prostate: carcinoma; seminal vesicles: carcinoma” (Carcinogen: 3,2'-DIMETHYL-4-AMINOBIPHENYL, 13394-86-0, Doses [Carcinogen]: 50 MG/KG 1/2 WK FOR A TOTAL OF 10 INJECTIONS, Doses [Promoter]: 0, 100 MG/KG 1/D FOR 3 D PRECEDING EACH CARCINOGEN DOSE THEN 0, 40 MG IN SILASTIC TUBES IMPLANTED POST LAST CARCINOGEN D, Doses [Promoter]: 0, 100 MG/KG 1/D FOR 3 D PRECEDING EACH CARCINOGEN DOSE THEN 0, 40 MG IN SILASTIC TUBES IMPLANTED POST LAST CARCINOGEN D, Route [Carcinogen]: SUBCUTANEOUS, Route [Promoter]: SUBCUTANEOUS, Species: RAT, Strain/Sex: F344/MALE); “prostate (anterior): carcinoma; seminal vesicles: carcinoma” (Carcinogen: 3,2'-DIMETHYL-4-AMINOBIPHENYL, 13394-86-0, Doses [Carcinogen]: 50 MG/KG BW 1/2 WK FOR 10 DOSES, Doses [Promoter]: 20, 40 MG/SILASTIC TUBE IMPLANT REPLACED AT 6 WK INTERVALS (STUDY DURATION: 60 WK), Route [Carcinogen]: SUBCUTANEOUS, Route [Promoter]: SUBCUTANEOUS, Species: RAT, Strain/Sex: F344/MALE); “seminal vesicles: carcinoma” (Carcinogen: 3,2'-DIMETHYL-4-AMINOBIPHENYL, 58109-32-3, Doses [Carcinogen]: 50 MG/KG BW 1/2 WK FOR 20 WK, Doses [Promoter]: 0, 40 MG BEGINNING POST CARCINOGEN TREATMENT AND RENEWED AT 6 WK INTERVALS FOR 40 WK (STUDY DURATION: 60 WK), Route [Carcinogen]: SUBCUTANEOUS, Route [Promoter]: SUBCUTANEOUS IMPLANT, Species: RAT, Strain/Sex: F344/MALE). Moreover, the outcome is given as “mammary gland: tumor” (Carcinogen: 17 BETA-ESTRADIOL [50-28-2], Doses [Carcinogen]: 22 MG AT 3 MO OF AGE ONCE/3 MO FOR 1 YR, Doses [Promoter]: 0, 60 MG AT 3 MO OF AGE ONCE/3 MO FOR 1 YR (STUDY DURATION: 1 YR), Route [Carcinogen]: SUBCUTANEOUS IMPLANT, Route [Promoter]: SUBCUTANEOUS IMPLANT, Species: RAT, Strain/Sex: NOBLE/FEMALE (?,18)/(?/15)); “mammary gland: tumor” (Carcinogen: 17 BETA-ESTRADIOL, 50-28-2, Doses [Carcinogen]: 22 MG AT 3 MO OF AGE ONCE EVERY 3 MO FOR 1 YR, Doses [Promoter]: 0, 120 MG AT 3 MO OF AGE, 1/3 MO FOR 1 YR (STUDY DURATION: 1 YR), Route [Carcinogen]: SUBCUTANEOUS IMPLANT, Route [Promoter]: SUBCUTANEOUS IMPLANT, Species: RAT, Strain/Sex: NOBLE/FEMALE); “urinary bladder: tumor” (Carcinogen: N-BUTYL-N-(4-HYDROXYBUTYL)NITROSAMINE [3817-11-6], Doses [Carcinogen]: 0.05% IN DRINKING WATER FOR 18 WK (STUDY DURATION: 18 WK), Doses [Promoter]: 0, 3 MG/KG BW FOR 18 WK (STUDY DURATION: 18 WK), Route [Carcinogen]: ORAL, Route [Promoter]: INTRAMUSCULAR, Species: MOUSE, Strain/Sex: C57B6/6/MALE); “prostate/seminal vesicles: tumor” (Carcinogen: N-METHYL-N-NITROSOUREA, 684-93-5, Doses [Carcinogen]: 30 MG/KG BW ONCE, Doses [Promoter]: 0, 25 MG IMPLANT CHANGED AT 2 MO INTERVALS FOR A TOTAL OF 3 TIMES (STUDY DURATION: 14 MO), Route [Carcinogen]: INTRAVENOUS, Route [Promoter]: SUBCUTANEOUS IMPLANT, Species: RAT, Strain/Sex: LOBUND-WISTAR/MALE); “prostate: adenocarcinoma” (Carcinogen: N-METHYL-N-NITROSOUREA, 684-93-5, Doses [Carcinogen]: 30 MG/KG ONCE, Doses [Promoter]: 0, 50 MG IN SILASTIC MEMBRANE IMPLANT BEGINNING 1 MO POST CARCINOGEN DOSE AND REPEATED AT INTERVALS OF 2 MO FOR A TOTAL, Route [Carcinogen]: INTRAVENOUS, Route [Promoter]: SUBCUTANEOUS IMPLANT, Species: RAT, Strain/Sex: LOBUND-WISTAR/MALE); “prostate: adenocarcinoma” (Carcinogen: N-METHYL-N-NITROSOUREA, 684-93-5, Doses [Carcinogen]: 30 MG/KG ONCE, Doses [Promoter]: 0, 50 MG IN SILASTIC MEMBRANE IMPLANT BEGINNING 1 WK POST CARCINOGEN DOSE AND REPEATED AT INTERVALS OF 2 MO FOR A TOTAL, Route [Carcinogen]: INTRAVENOUS, Route [Promoter]: SUBCUTANEOUS IMPLANT, Species: RAT, Strain/Sex: LOBUND-WISTAR/MALE). The outcome is reported as “prostate: adenocarcinoma” (Carcinogen: N-METHYL-N-NITROSOUREA, 684-93-5, Doses [Carcinogen]: 30 MG/KG ONCE, Doses [Promoter]: 0, 50 MG IN SILASTIC MEMBRANE IMPLANT BEGINNING 1 WK POST CARCINOGEN DOSE FOLLOWED BY SECOND IMPLANT 2 MO LATER (STUDY D, Route [Carcinogen]: INTRAVENOUS, Route [Promoter]: SUBCUTANEOUS IMPLANT, Species: RAT, Strain/Sex: LOBUND-WISTAR/MALE); “prostate: adenocarcinoma” (Carcinogen: N-METHYL-N-NITROSOUREA, 684-93-5, Doses [Carcinogen]: 30 MG/KG ONCE, Doses [Promoter]: 0, 50 MG IN SILASTIC MEMBRANE IMPLANT BEGINNING 2 MO POST CARCINOGEN DOSE AND REPEATED AT INTERVALS OF 2 MO FOR A TOTAL, Route [Carcinogen]: INTRAVENOUS, Route [Promoter]: SUBCUTANEOUS IMPLANT, Species: RAT, Strain/Sex: LOBUND-WISTAR/MALE); “seminal vesicles: carcinoma; congulating glands: carcinoma” (Carcinogen: N-METHYLNITROSOUREA, 684-93-5, Doses [Carcinogen]: 15 MG/KG/BW 1/4 WK FOR 5 INJECTIONS EACH FOLLOWING 2 WK PRETREATMENT WITH DIETARY ETHINYL ESTRADIOL, Doses [Promoter]: 0, 40 MG IMPLANTS REPLACED AT 6 WK INTERVALS FOR 40 WK IN RATS MAINTAINED ON DIETS WITH OR WITHOUT HIGH FAT CONTENT (20%, Route [Carcinogen]: INTRAVENOUS, Route [Promoter]: SUBCUTANEOUS IMPLANT, Species: RAT, Strain/Sex: F344/MALE); “seminal vesicles: carcinoma” (Carcinogen: N-NITROSOBIS(2-OXOPROPYL)AMINE, 60599-38-4, Doses [Carcinogen]: 20 MG/KG 1/4 WK FOR 5 INJECTIONS EACH FOLLOWING 2 WK PRETREATMENT WITH DIETARY ETHINYL ESTRADIOL, Doses [Promoter]: 0, 40 MG IMPLANTS REPLACED AT 6 WK INTERVALS FOR 40 WK IN RATS MAINTAINED ON DIETS WITH OR WITHOUT HIGH FAT CONTENT (20%, Route [Carcinogen]: SUBCUTANEOUS, Route [Promoter]: SUBCUTANEOUS IMPLANT, Species: RAT, Strain/Sex: F344/MALE).

`CC/C(=C(/CC)c1ccc(O)cc1)c1ccc(O)cc1`: the outcome runs as follows: (Carcinogen: IRRADIATION, Doses [Carcinogen]: 260 CGY GAMMA RAYS AT DAY 20 OF PREGNANCY, Doses [Promoter]: 0, 0.376 UG/D RELEASED FROM PELLET IMPLANTED AFTER NURSING DISCONTINUED, PELLET REPLACED EVERY 8 WK (STUDY DURATION: 1 Y, Route [Carcinogen]: DERMAL, Route [Promoter]: IMPLANT, Species: RAT, Strain/Sex: WISTAR/FEMALE) “mammary gland: tumor”; (Carcinogen: Sodium arsenite, 7781-46-5, Doses [Carcinogen]: 0, 85 ppm to dams on gestational days 8-18, Doses [Promoter]: 2 ug on days 1, 2, 3, 4, and 5 of life, study duration for pups 90 wks, Route [Carcinogen]: Drinking water, days 8-18 of gestation (dams), Route [Promoter]: Subcutaneous (to offspring), Species: Mouse, Strain/Sex: C3H/HeNCr, (25 Male and female offspring/Group of dams exposed to sodium arsenite)) “males: urinary bladder: tumors, liver: tumors females: urogenital tumors”; (Carcinogen: URETHANE, 51-79-6, Doses [Carcinogen]: 500 MG/KG BW ONCE (STUDY DURATION: 19 WK), Doses [Promoter]: 5 MG/KG BW 1X/WK FOR 18 WK BEGINNING 1 WK POST LAST CARCINOGEN DOSE (STUDY DURATION: 19 WK), Route [Carcinogen]: INTRAPERITONEAL, Route [Promoter]: INTRAMUSCULAR, Species: MOUSE, Strain/Sex: KUNMING/FEMALE) “liver: tumor”.
